Values of other authors, collected in patent US12557779B2 (priority 2020, dated 2026).

Biological target: cannabinoid receptor type 2 (CB2) (Homo sapiens, UniProt P34972)
Sequence (P34972 whole entry, species assumed): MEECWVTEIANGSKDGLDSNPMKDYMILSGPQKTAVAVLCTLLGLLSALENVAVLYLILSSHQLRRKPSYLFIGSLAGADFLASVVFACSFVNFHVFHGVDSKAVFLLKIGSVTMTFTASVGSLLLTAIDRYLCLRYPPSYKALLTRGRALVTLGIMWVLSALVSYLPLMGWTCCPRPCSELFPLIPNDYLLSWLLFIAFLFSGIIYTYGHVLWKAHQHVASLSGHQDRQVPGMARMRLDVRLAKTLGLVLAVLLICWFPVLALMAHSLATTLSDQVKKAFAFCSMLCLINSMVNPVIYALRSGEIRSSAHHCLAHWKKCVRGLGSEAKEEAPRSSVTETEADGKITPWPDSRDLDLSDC

SMILES: C=C(C)[C@@H]1CCC(C)=C[C@H]1c1c(O)cc(CCCCC)cc1O [CBD, cannabidiol]
- affinity for CB2: minimal affinity
